Holding throughout (experiment): microbe, parasite or virus in culture
Holding throughout (conditions): Hepatitis C virus

The subject of experiment [1] is stable HCV 1b RLuc replicon cells (genotype 1b Con1 replicon). Type of experiment: cell-based.
The subject of experiment [2] is stable HCV 1a RLuc replicon cells (genotype 1a H77 replicon). Type of experiment: cell-based.
The test system of experiment [3] is NS5A chimeric genotype 2a JFH-1 replicon with genotype 2b MD2b-1 strain NS5A gene (M31 present). Type of experiment: cell-based, HCV. The method in brief:
(§1)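 Con1-based 3a and 4a chimeras carried a Pi-RLuc reporter and were transiently transfected into Huh-Lunet cells; the JFH-1-based 2b chimera (RLuc-Neo) was used transiently or as stable replicon cells.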

In experiment [4] the test system is NS5A chimeric genotype 2a JFH-1 replicon with genotype 2a J6 strain NS5A gene (M31 present). The format is cell-based, HCV.
Experiment [5] has as its system stable HCV 2a JFH-1 Rluc replicon cells (L31 present in NS5A). Type of experiment: cell-based.
Experiment [6] deals with NS5A chimeric genotype 1b Con1 replicon with genotype 4a ED43 strain NS5A gene. The format is cell-based, HCV.
Experiment [7] relates to 1a Pi-Rluc replicon with Q30R in genotype 1a NS5A. The format is cell-based, HCV. In short, it runs like this:
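Renilla luciferase replicon assay: 1a Pi-RLuc replicon carrying NS5A Q30R, transfected transiently into cured-51 (Huh-7-derived) cells.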

For experiment [8], the system named is NS5A chimeric genotype 1b Con1 replicon with genotype 3a S52 strain NS5A gene. The format is cell-based, HCV. The method in brief: as §1

Like-named read-outs stand apart in the source and are kept apart here.

With `CCC(C)[C@H](NC(=O)OC)C(=O)N1C[C@@H](C)CC1c1ncc(-c2ccc3c(c2)COc2cc4c(ccc5nc([C@@H]6CC(COC)CN6C(=O)[C@@H](NC(=O)OC)C(C)C)[nH]c54)cc2-3)[nH]1` (stereo in doubt) [Example QC, Methyl {(2S)-1-[(2S,4S)-2-(9-{2-[(2S,4S)-1-{(2S,3R)-2-[(methoxycarbonyl)amino]-3-methylpentanoyl}-4-methylpyrrolidin-2-yl]-1H-imidazol-5-yl}-1,11-dihydroisochromeno[4′,3′:6,7]naphtho[1,2-d]imidazol-2-yl)-4-(methoxymethyl)pyrrolidin-1-yl]-3-methyl-1-oxobutan-2-yl}carbamate], the EC50 in experiment [1] (read-out: 1b (nM)) was 0.014 nM; in experiment [2] (read-out: 1a) it was less than 1 nM; in experiment [2] (read-out: 1a (nM)), 0.012 nM; in experiment [3] (read-out: 2b) it was less than 1 nM; in experiment [3] (read-out: 2b (t) (nM)), 0.317 nM; in experiment [4] (read-out: 2a J6), less than 1 nM. The results for the EC50 in experiment [4] (read-out: 2a Jb (t) (nM)), in experiment [5] (read-out: 2a JFH) and in experiment [5] (read-out: 2a JFH (nM)) were 0.157 nM, less than 1 nM and 0.008 nM, respectively.
With `CCC(C)[C@H](NC(=O)OC)C(=O)N1C[C@@H](C)CC1c1ncc(-c2ccc3c(c2)COc2cc4c(ccc5nc([C@@H]6CC(COC)CN6C(=O)[C@@H](NC(=O)OC)C(C)OC)[nH]c54)cc2-3)[nH]1` (stereo in doubt) [Example QD, Methyl {(2S,3R)-1-[(2S,4S)-2-(5-{2-[(2S,4S)-1-[N-(methoxycarbonyl)-O-methyl-L-allothreonyl]-4-(methoxymethyl)pyrrolidin-2-yl]-1,11-dihydroisochromeno[4′,3′:6,7]naphtho[1,2-d]imidazol-9-yl}-1H-imidazol-2-yl)-4-methylpyrrolidin-1-yl]-3-methyl-1-oxopentan-2-yl}carbamate], the EC50 in experiment [1] (read-out: 1b (nM)) is 0.03 nM; in experiment [2] (read-out: 1a), less than 1 nM; in experiment [2] (read-out: 1a (nM)), 0.025 nM; in experiment [3] (read-out: 2b), less than 1 nM; in experiment [3] (read-out: 2b (t) (nM)), 0.193 nM; in experiment [4] (read-out: 2a J6) it was less than 1 nM. For the same compound, the EC50 is 0.103 nM in experiment [4] (read-out: 2a Jb (t) (nM)), less than 1 nM in experiment [5] (read-out: 2a JFH) and 0.013 nM in experiment [5] (read-out: 2a JFH (nM)).
For `CCC(C)C(NC(=O)OC)C(=O)N1CC(COC)C[C@H]1c1nc2ccc3cc4c(cc3c2[nH]1)OCc1cc(-c2cnc(C3C[C@H](C)CN3C(=O)[C@@H](NC(=O)OC)C(C)CC)[nH]2)ccc1-4` (stereo in doubt) [Example QE, Methyl {(3R)-1-[(2S,4S)-2-(9-{2-[(2S,4S)-1-{(2S,3R)-2-[(methoxycarbonyl)amino]-3-methylpentanoyl}-4-methylpyrrolidin-2-yl]-1H-imidazol-5-yl}-1,11-dihydroisochromeno[4′,3′:6,7]naphtho[1,2-d]imidazol-2-yl)-4-(methoxymethyl)pyrrolidin-1-yl]-3-methyl-1-oxopentan-2-yl}carbamate], the EC50 was 0.015 nM in experiment [1] (read-out: 1b (nM)); less than 1 nM in experiment [2] (read-out: 1a); 0.013 nM in experiment [2] (read-out: 1a (nM)); less than 1 nM in experiment [3] (read-out: 2b); 0.563 nM in experiment [3] (read-out: 2b (t) (nM)); less than 1 nM in experiment [4] (read-out: 2a J6). Also, the EC50 is 0.291 nM in experiment [4] (read-out: 2a Jb (t) (nM)), less than 1 nM in experiment [5] (read-out: 2a JFH) and 0.011 nM in experiment [5] (read-out: 2a JFH (nM)).
For `COC[C@H]1C[C@@H](c2nc3ccc4cc5c(cc4c3[nH]2)OCc2cc(-c3cnc([C@@H]4CC[C@H](C)N4C(=O)[C@@H](NC(=O)OC)[C@@H](C)OC)[nH]3)ccc2-5)N(C(=O)[C@@H](NC(=O)OC)[C@@H](C)OC)C1` [Compound 646], the EC50 is 0.109 nM in experiment [1] (read-out: 1b (nM) EC50); 0.058 nM in experiment [2] (read-out: 1a (nM) EC50); less than 1 nM in experiment [2] (read-out: 1a EC50 range); 0.034 nM in experiment [6] (read-out: 4a (s) (nM) EC50); less than 1 nM in experiment [6] (read-out: 4a EC50 range); 0.262 nM in experiment [3] (read-out: 2b (s) (nM) EC50). The EC50 in experiment [3] (read-out: 2b (t) (nM) EC50) is 0.112 nM; in experiment [3] (read-out: 2b EC50 range) it was less than 1 nM; in experiment [4] (read-out: 2a J6 EC50 range), less than 1 nM; in experiment [4] (read-out: 2a Jb (t) (nM) EC50), 0.042 nM; in experiment [5] (read-out: 2a JFH (nM) EC50) it was 0.03 nM; in experiment [5] (read-out: 2a JFH EC50 range), less than 1 nM.
As for `COC[C@H]1C[C@@H](c2nc3ccc4cc5c(cc4c3[nH]2)OCc2cc(-c3cnc([C@@H]4C[C@H](C)CN4C(=O)[C@@H](NC(=O)OC)[C@@H](C)OC)[nH]3)ccc2-5)N(C(=O)[C@@H](NC(=O)OC)[C@@H](C)OC)C1` [Example NK, Methyl {(2S,3R)-3-methoxy-1-[(2S,4S)-2-[9-(2-{(2S,4S)-1-[N-(methoxycarbonyl)-O-methyl-L-threonyl]-4-methylpyrrolidin-2-yl}-1H-imidazol-5-yl)-1,11-dihydroisochromeno[4′,3′:6,7]naphtho[1,2-d]imidazol-2-yl]-4-(methoxymethyl)pyrrolidin-1-yl]-1-oxobutan-2-yl}carbamate], the EC50 in experiment [1] (read-out: 1b (nM)) was 0.081 nM; in experiment [2] (read-out: 1a), less than 1 nM; in experiment [2] (read-out: 1a (nM)), 0.049 nM; in experiment [3] (read-out: 2b), less than 1 nM; in experiment [3] (read-out: 2b (t) (nM)), 0.154 nM; in experiment [4] (read-out: 2a J6) it was less than 1 nM. Also, the EC50 is 0.056 nM in experiment [4] (read-out: 2a Jb (t) (nM)), less than 1 nM in experiment [5] (read-out: 2a JFH) and 0.018 nM in experiment [5] (read-out: 2a JFH (nM)).
In the case of `COC(=O)N[C@H](C(=O)N1[C@@H](C)CC[C@H]1c1ncc(-c2ccc3c(c2)COc2cc4c(ccc5nc([C@@H]6C[C@H](C)CN6C(=O)[C@@H](NC(=O)OC)[C@@H](C)OC)[nH]c54)cc2-3)[nH]1)C(C)C` [Example NL, Methyl {(2S)-1-[(2S,5S)-2-(5-{2-[(2S,4S)-1-{(2S,3R)-3-methoxy-2-[(methoxycarbonyl)amino]butanoyl}-4-methylpyrrolidin-2-yl]-1,11-dihydroisochromeno[4′,3′:6,7]naphtho[1,2-d]imidazol-9-yl}-1H-imidazol-2-yl)-5-methylpyrrolidin-1-yl]-3-methyl-1-oxobutan-2-yl}carbamate], the EC50 in experiment [1] (read-out: 1b (nM)) is 0.013 nM; in experiment [2] (read-out: 1a) it was less than 1 nM; in experiment [2] (read-out: 1a (nM)), 0.011 nM; in experiment [3] (read-out: 2b), less than 1 nM; in experiment [3] (read-out: 2b (t) (nM)), 0.034 nM; in experiment [4] (read-out: 2a J6) it was less than 1 nM. In addition, the EC50 in experiment [4] (read-out: 2a Jb (t) (nM)) was 0.043 nM; in experiment [5] (read-out: 2a JFH), less than 1 nM; in experiment [5] (read-out: 2a JFH (nM)) it was 0.007 nM.
As for `COC(=O)N[C@H](C(=O)N1[C@H](c2nc3ccc4cc5c(cc4c3[nH]2)OCc2cc(-c3cnc(C4CCCN4C(=O)[C@@H](NC(=O)OC)C4CCOCC4)[nH]3)ccc2-5)C[C@@H]2CCC[C@@H]21)C(C)C` (stereo partly drawn) [Example PP, methyl [(1S)-2-[2-(5-{2-[(2S,3aS,6aS)-1-{(2S)-2-[(methoxycarbonyl)amino]-3-methylbutanoyl}octahydrocyclopenta[b]pyrrol-2-yl]-1,11-dihydroisochromeno[4′,3′:6,7]naphtho[1,2-d]imidazol-9-yl}-1H-imidazol-2-yl)pyrrolidin-1-yl]-2-oxo-1-(tetrahydro-2H-pyran-4-yl)ethyl]carbamate], the EC50 in experiment [7] (read-out: 1a Q30R) is less than 1 nM; in experiment [7] (read-out: 1a Q30R (nM)) it was 0.043 nM; in experiment [2] (read-out: 1a) it was less than 1 nM; in experiment [2] (read-out: 1a (nM)) it was 0.014 nM; in experiment [6] (read-out: 4a) it was less than 1 nM; in experiment [6] (read-out: 4a (s) (nM)), 0.011 nM. Besides, the EC50 is 0.027 nM in experiment [6] (read-out: 4a (t) (nM)); less than 1 nM in experiment [8] (read-out: 3a); 0.019 nM in experiment [8] (read-out: 3a (nM)); less than 1 nM in experiment [3] (read-out: 2b); 0.11 nM in experiment [3] (read-out: 2b (s) (nM)); 0.038 nM in experiment [3] (read-out: 2b (t) (nM)). The EC50 was less than 1 nM in experiment [4] (read-out: 2a J6); 0.403 nM in experiment [4] (read-out: 2a J6 (s) (nM)); 0.061 nM in experiment [4] (read-out: 2a Jb (t) (nM)); less than 1 nM in experiment [5] (read-out: 2a JFH); 0.011 nM in experiment [5] (read-out: 2a JFH (nM)).
Regarding `COC[C@H]1C[C@@H](c2ncc(-c3ccc4c(c3)COc3cc5c(ccc6nc([C@@H]7CC[C@H](C)N7C(=O)[C@@H](NC(=O)OC)C(C)C)[nH]c65)cc3-4)[nH]2)N(C(=O)[C@@H](NC(=O)OC)C(C)C)C1` [Example PZ, Methyl {(2S)-1-[(2S,5S)-2-(9-{2-[(2S,4S)-1-{(2S)-2-[(methoxycarbonyl)amino]-3-methylbutanoyl}-4-(methoxymethyl)pyrrolidin-2-yl]-1H-imidazol-5-yl}-1,11-dihydroisochromeno[4′,3′:6,7]naphtho[1,2-d]imidazol-2-yl)-5-methylpyrrolidin-1-yl]-3-methyl-1-oxobutan-2-yl}carbamate], the EC50 in experiment [7] (read-out: 1a Q30R) was less than 1 nM; in experiment [7] (read-out: 1a Q30R (nM)), 0.057 nM; in experiment [2] (read-out: 1a), less than 1 nM; in experiment [2] (read-out: 1a (nM)), 0.009 nM; in experiment [6] (read-out: 4a (s) (nM)) it was 0.025 nM; in experiment [8] (read-out: 3a), less than 1 nM. Also, the EC50 in experiment [3] (read-out: 2b) was less than 1 nM; in experiment [3] (read-out: 2b (s) (nM)), 0.386 nM; in experiment [3] (read-out: 2b (t) (nM)), 0.071 nM; in experiment [4] (read-out: 2a J6), less than 1 nM; in experiment [4] (read-out: 2a J6 (s) (nM)), 1.71 nM; in experiment [4] (read-out: 2a Jb (t) (nM)), 0.175 nM. For the same compound, the results for the EC50 in experiment [5] (read-out: 2a JFH) and in experiment [5] (read-out: 2a JFH (nM)) were less than 1 nM and 0.005 nM, respectively.

The values are drawn from patent US8575135B2 (Gilead Sciences, Inc., priority 2011, dated 2013).
